According to paper PMC12615753, “Glutathione as a taste modulator: molecular mechanisms of interaction with umami and sweet taste receptors” (Food Chemistry: Molecular Sciences, 2025):

Target: T1, hTAS1R1 A170W/rTAS1R3 (UniProt Q7RTX1+Q923K1, A170W)
T1 construct: The cDNA coding region of rTAS1R3 was synthesized with optimized-codon usage for human expression; expressed in transfected cells; host or cells: HEK293T/17
T1 sequence (Q7RTX1 21-841 A170W): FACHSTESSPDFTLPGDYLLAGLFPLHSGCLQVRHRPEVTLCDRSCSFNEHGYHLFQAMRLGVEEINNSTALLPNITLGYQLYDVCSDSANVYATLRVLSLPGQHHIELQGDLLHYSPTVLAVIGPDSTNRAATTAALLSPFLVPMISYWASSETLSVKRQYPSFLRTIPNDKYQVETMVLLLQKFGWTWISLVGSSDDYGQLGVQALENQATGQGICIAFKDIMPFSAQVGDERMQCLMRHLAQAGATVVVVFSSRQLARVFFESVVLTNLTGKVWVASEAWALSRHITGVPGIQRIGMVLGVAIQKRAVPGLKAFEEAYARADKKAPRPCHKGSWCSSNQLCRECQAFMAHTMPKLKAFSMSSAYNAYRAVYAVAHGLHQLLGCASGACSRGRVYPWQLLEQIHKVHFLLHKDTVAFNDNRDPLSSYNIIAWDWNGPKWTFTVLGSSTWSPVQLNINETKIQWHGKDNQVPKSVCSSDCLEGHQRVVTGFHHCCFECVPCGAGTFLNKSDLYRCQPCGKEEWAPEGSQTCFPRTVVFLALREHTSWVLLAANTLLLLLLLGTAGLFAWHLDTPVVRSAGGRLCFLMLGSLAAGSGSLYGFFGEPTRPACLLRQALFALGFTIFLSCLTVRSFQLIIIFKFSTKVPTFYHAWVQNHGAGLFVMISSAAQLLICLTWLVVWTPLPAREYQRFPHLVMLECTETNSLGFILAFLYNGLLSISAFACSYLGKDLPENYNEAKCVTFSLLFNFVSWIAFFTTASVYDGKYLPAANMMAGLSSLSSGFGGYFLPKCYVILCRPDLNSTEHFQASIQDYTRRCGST
T1 sequence (Q923K1 21-858): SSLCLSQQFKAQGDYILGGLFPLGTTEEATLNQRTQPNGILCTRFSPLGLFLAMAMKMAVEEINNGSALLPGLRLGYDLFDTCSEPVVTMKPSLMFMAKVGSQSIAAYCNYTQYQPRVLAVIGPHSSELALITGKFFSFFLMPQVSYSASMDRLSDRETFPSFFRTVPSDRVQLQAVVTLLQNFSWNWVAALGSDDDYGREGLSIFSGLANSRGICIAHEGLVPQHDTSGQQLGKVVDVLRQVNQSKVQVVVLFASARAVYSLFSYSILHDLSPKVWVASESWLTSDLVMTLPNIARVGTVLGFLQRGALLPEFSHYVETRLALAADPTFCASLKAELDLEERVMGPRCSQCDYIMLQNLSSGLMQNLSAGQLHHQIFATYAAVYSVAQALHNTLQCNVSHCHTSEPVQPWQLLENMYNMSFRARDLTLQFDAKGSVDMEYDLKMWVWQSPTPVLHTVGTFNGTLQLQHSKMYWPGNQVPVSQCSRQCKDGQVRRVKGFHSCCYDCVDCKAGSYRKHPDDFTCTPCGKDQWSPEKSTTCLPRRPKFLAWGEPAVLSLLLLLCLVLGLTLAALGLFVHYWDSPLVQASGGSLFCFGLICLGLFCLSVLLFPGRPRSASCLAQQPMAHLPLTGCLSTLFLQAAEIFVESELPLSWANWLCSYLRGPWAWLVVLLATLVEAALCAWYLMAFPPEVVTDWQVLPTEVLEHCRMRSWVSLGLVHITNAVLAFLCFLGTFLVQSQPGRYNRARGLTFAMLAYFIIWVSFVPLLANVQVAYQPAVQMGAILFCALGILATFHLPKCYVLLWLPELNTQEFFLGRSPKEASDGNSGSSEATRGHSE
Assay: Calcium assay, hTAS1R1 mutant co-expressed with rTAS1R3
Type: cell-based, human, rat

Compound | EC50 | Max ∆F/F0 (A170W, GSH) | R1 = mutant EC50/WT EC50 (A170W, GSH) | response to the agonist alone, vs WT (A170W)
N[C@@H](CCC(=O)N[C@@H](CS)C(=O)NCC(=O)O)C(=O)O [GSH, γ-L-glutamyl-L-cysteinyl-glycine] | 5.29 ± 1.56 mM | 0.09 ± 0.01 | 2.1 | 
N[C@@H](CCC(=O)O)C(=O)O [L-Glu, L-glutamic acid, reference compound] |  |  |  | completely suppressed
